The values below are quoted from earlier work in patent US20240165036A1, “ENCAPSULATED VITAMIN D” (Nulixir Inc., priority 2022, published 2024).

The structures appear in SMILES notation.

The conditions of the data set: reference phases water and n-octanol; pH=7 unless stated otherwise.
As for `Cn1cnc2c1c(=O)[nH]c(=O)n2C` [theobromine], the lipophilicity (log P) (commonly a log measure of how a compound divides between an organic and an aqueous phase) is recorded as ~−0.78.

As for `CCNC(=O)CC[C@H](N)C(=O)O` [L-theanine], the “log P” value is on record as ~−3. On to `N[C@@H](Cc1c[nH]c2ccc(O)cc12)C(=O)O` [Dispersion 5-HTP, 5-hydroxytryptophan], for which the “log P” value is reported as ~−2. As to `O=C(O)c1cc(C(=O)O)c2c(n1)C(=O)C(=O)c1cc(C(=O)O)[nH]c1-2` [PQQ, pyrroloquinoline quinone], the lipophilicity (log P) is ~0.4. Regarding `COc1cc(O)c2c(=O)c(OC)c(-c3ccc(O)cc3)oc2c1` [kumatakenin], the “log P” value is recorded as ~2.5. In the case of `COc1ccc(/C=C/c2cc(OC)cc(=O)o2)cc1` [yangonin], the “log P” value is given as ~2.8. Consider `N[C@@H](Cc1ccccc1)C(=O)O` [L-phenylalanine], for which the “log P” value is reported as ~−1.38.

Turning to `O=C(/C=C/c1ccccc1)N1CCCC1` [(E)-1-cinnamoylpyrrolidine], the log partition coefficient (log P) is ~2.2. On to `NCCCC(=O)O` [GABA, gamma-aminobutyric acid], for which the “log P” value is given as ~−3.
